How the values were obtained:
[1] = test system: MC38; experiment: MTT cytotoxicity assay, MC38; type: cell-based; settings: MC38, colon, 72 hr, read-out: IC50, cell killing
Experimental: (§1) All cell lines were obtained from the American Type Culture Collection (ATCC) and cultured in the specified medium supplemented with 10% fetal bovine serum, 100 IU/mL penicillin, and 100 μg/mL streptomycin at 37° C. in a humidified 5% CO2/95% air incubator. To assess drug cytotoxicity cells were seeded at 2,500 cells/well (10,000 cells/well for MM lines and primary cells) in 100 μL medium in 96-well plate. […]
(§2) It was examined whether the RPN13 inhibitor, RA475, was cytotoxic for cancer cell lines using the MTT assay.

[2] = test system: TSH1; experiment: MTT cytotoxicity assay, TSH1; type: cell-based; settings: TSH1, thyroid, 72 hr, read-out: IC50, cell killing
Experimental: as §1, §2

[3] = test system: ES2; experiment: MTT cytotoxicity assay, ES2; type: cell-based; settings: ES2, ovarian, 72 hr, read-out: IC50, cell killing
Experimental: as §1, §2

[4] = test system: BT549; experiment: MTT cytotoxicity assay, BT549; type: cell-based; settings: BT549, breast, 72 hr, read-out: IC50, cell killing
Experimental: as §1, §2

[5] = test system: high molecular weight polyubiquitinated proteins in OVCAR3 cells; experiment: Western blot for polyubiquitinated proteins, OVCAR3 cells; type: cell-based; settings: RA475 0.5 μM and 1 μM
Experimental: Cell lysate (10-20 μg total protein) prepared in MPER (Pierce) from each sample was subjected to SDS-PAGE, transferred to PVDF membranes and analyzed by Western blot using antibodies specific for ubiquitin (P4D1, sc-8017, Santa Cruz), or after stripping antibody for actin (#66009, Protein Tech Group), at the dilutions recommended by the manufacturers, and for secondary antibodies either peroxidase-linked anti-mouse IgG or anti-rabbit IgG (GE Healthcare UK Ltd) were utilized at the recommended dilution. The blots were developed using HyGLO chemiluminescent detection reagent (Denville).
Proteasome inhibitors cause a rapid accumulation of polyUb proteins that is associated with unresolved UPR stress and the induction of apoptosis. Since RA475 is cytotoxic to ovarian cancer cells (Table 1), and induces such a rapid accumulation of polyUb proteins (FIG. 5), it was examined whether RA475 also triggered apoptosis. SKOV3 cells (FIG. 5A) were treated with Up284 (0.5 μM and 1 μM), 1 μM RA190, RA475 (0.5 μM and 1 μM) or vehicle alone (DMSO) and then cultured for 12 hr. OVCAR3 cells (FIG. 5B) were treated with Up284 (0.5 μM), Bortezomib (Bz, 0.25 μM), Ixazomib (Iz, 0.25 μM), RA475 (0.5 μM and 1 μM) or vehicle alone (DMSO). The attached cells were harvested and their lysates were subjected to Western blot analysis, first probed with antibody to ubiquitin and then to actin.

[6] = test system: ID8-Vegf Defb29 cells stably expressing firefly luciferase in C57BL6 mice; experiment: ID8-Luc syngeneic ovarian tumor model; type: in vivo, mouse; settings: female C57BL6 mice, 40 mg/Kg every 3 days, i.p.
Experimental: Whereas vehicle treatment (n=7) increased tumor burden and ascites formation.
Briefly, female C57BL6 mice were injected (i.p.) with ID8-Vegf Defb29 cells stably expressing firefly luciferase (0.5×10^6 cells) in PBS (100 uL). After 72 hrs, mice were imaged for their basal luminescence levels using an IVIS200 imager. Mice with visible luminescence were randomized into two groups and treated with Vehicle (25% b-hydroxy propylcyclodextrin in water, 200 uL, every 3 days, i.p.) and RA475 (40 mg/Kg, every 3 days, i.p.). Mice were imaged every week to measure bioluminescence expressed by tumor after administration of luciferin (100 uL, 7.8 mg/mL).

[7] = test system: PEA2; experiment: MTT cytotoxicity assay, PEA2; type: cell-based; settings: PEA2, ovarian, 72 hr, read-out: IC50, cell killing
Experimental: as §1, §2

[8] = test system: HepG2; experiment: MTT cytotoxicity assay, HepG2; type: cell-based; settings: HepG2, liver, 72 hr, read-out: IC50, cell killing
Experimental: as §1, §2

[9] = test system: 4T1 cells stably expressing 4UbFL; experiment: 4UbFL proteasome reporter, 4T1 cells; type: cell-based; settings: 4 hr treatment, IVIS imager
Experimental: Data are presented as IVIS image (FIG. 8A) and bioluminescence units (FIG. 8B).
4T1 and HCC1806 cells were transfected with 4UbFL plasmid using TransIT2020 transfection reagent for a period of 48 hrs and cells were selected using G418 antibiotic from single colonies. Selected cells were seeded in a 24-well plate (50,000/well) and incubated for 18 h at 37° C. in an incubator. Next, cells were treated with compounds for the period of 4 hr and Luciferin was added (50 uL each well, 7.8 mg/mL) and imaged through an IVIS200 instrument and plotted as a bioluminescent value or fold increase to DMSO control.

[10] = test system: MCF7; experiment: MTT cytotoxicity assay, MCF7; type: cell-based; settings: MCF7, breast, 72 hr, read-out: IC50, cell killing
Experimental: as §1, §2

[11] = test system: HeLa; experiment: MTT cytotoxicity assay, HeLa; type: cell-based; settings: cervical, 72 hr, read-out: IC50, cell killing
Experimental: as §1, §2

[12] = test system: HCT116; experiment: MTT cytotoxicity assay, HCT116; type: cell-based; settings: HCT116, colon, 72 hr, read-out: IC50, cell killing
Experimental: as §1, §2

[13] = test system: PEO23; experiment: MTT cytotoxicity assay, PEO23; type: cell-based; settings: PEO23, ovarian, 72 hr, read-out: IC50, cell killing
Experimental: as §1, §2

[14] = test system: DLD-1; experiment: MTT cytotoxicity assay, DLD-1; type: cell-based; settings: DLD-1, colon, 72 hr, read-out: IC50, cell killing
Experimental: as §1, §2

[15] = molecular target: T1, 42 kDa RPN13 (Homo sapiens, UniProt Q16186); experiment: RA190B competitive labeling assay in ES2 cell lysate; type: binding; settings: ES2 cell lysate pre-incubated 45 min at 4° C. (bortezomib or Up compounds 5 μM), then RA190B 20 μM
T1 construct: endogenous in cells; host or cells: ES2 cell lysate (clarified, in MPER buffer)
Experimental: Clarified cell lysate (40 ug/sample) in MPER buffer was pretreated with streptavidin-coated magnetic beads for 45 min at 4° C. to deplete non-specific biotinylated proteins in the cell lysate. […] Next, the samples were mixed with Laemmli sample buffer (BioRad) and boiled for 5 min. The proteins were separated using a 4-15% Bio-Rad Mini-PROTEAN SDS-PAGE gel (1 hr at 100 V), and transferred to PVDF membrane overnight at 4° C. (24 V). The membrane was blocked with 5% BSA in PBST for 1 hr at RT and washed for 20 minutes (3× with PBST). Then the membrane was probed with HRP-streptavidin (1:10,000 in PBST) for 1 hr at RT, washed for 30 min (3× with PBST), and developed using HyGLO chemiluminescent detection reagent (Denville) for biotin detection.
ES2 cell lysates were incubated with 20 μM RA190B for 45 min at 4° C., and then separated by SDS-PAGE, transferred to a PVDF membrane.

T1 sequence (Q16186 whole entry): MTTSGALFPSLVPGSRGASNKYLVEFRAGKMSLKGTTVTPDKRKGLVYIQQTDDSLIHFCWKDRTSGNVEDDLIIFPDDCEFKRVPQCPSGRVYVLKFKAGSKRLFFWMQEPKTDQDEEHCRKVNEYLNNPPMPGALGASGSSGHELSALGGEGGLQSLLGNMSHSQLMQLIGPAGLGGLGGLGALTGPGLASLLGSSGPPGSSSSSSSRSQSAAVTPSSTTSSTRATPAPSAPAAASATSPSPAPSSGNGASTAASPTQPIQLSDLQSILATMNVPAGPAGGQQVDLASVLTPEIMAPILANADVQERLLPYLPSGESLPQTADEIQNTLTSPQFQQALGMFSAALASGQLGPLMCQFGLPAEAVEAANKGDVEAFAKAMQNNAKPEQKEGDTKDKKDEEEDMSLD

SMILES | IC50 [1] | IC50 [2] | IC50 [3] | IC50 [4] | accumulation of high molecular weight polyubiquitinated proteins [5] | body weight [6] | effect on tumor (bioluminescence) [6] | survival [6] | IC50 [7] | IC50 [8] | bioluminescence of 4UbFL reporter [9] | IC50 [10] | IC50 [11] | IC50 [12] | IC50 [13] | IC50 [14] | competition with binding of RA190B to the 42 kDa RPN13 [15]
Cl.Cl.N#Cc1ccc(/C=C2/C(=O)/C(=C/c3ccc(C#N)cc3)C23CCN(C(=N)N)CC3)cc1 [RA475] | 359 nM | 114 nM | 160 nM | 229 nM | triggers the accumulation | no weight loss | regressed tumor | enhanced survival | 356 nM | 241 nM | dose-dependent increase | 742 nM | 213 nM | 430 nM | 350 nM | 491 nM | –
N#Cc1ccc(/C=C2/C(=O)/C(=C/c3ccc(C#N)cc3)C23CCNCC3)cc1 [Up284, reference compound] | – | – | – | – | – | – | – | – | – | – | – | – | – | – | – | – | competed

From US12410141B2, “Anti-cancer spirocyclic-guanidine compounds and uses thereof” (The Johns Hopkins University, priority 2020, dated 2025)
